Read-outs that look alike come from different tables or passages of the source.
Key:
cortical neurons [1] = assay: LDH release after 1 hr oxygen-glucose deprivation combined with acidosis; assay type: cell-based, mouse; details: n=8-11
Method: To determine if activation of ASICs in ischemic conditions produced greater neuronal injury, neurons from P1 ASIC1^+/+ and ASIC1^−/− mice were subjected to 1 hr acid treatment under oxygen and glucose deprivation.
(§1) Following anesthesia with halothane, cerebral cortices were dissected from PI ASIC1^+/+ and ASIC1^−/− mice and incubated with 0.05% trypsin-EDTA for 10 min at 37° C. Tissues were then triturated with fire-polished glass pipettes and plated on poly-L-ornithine-coated 24-well plates or 25×25 mm glass coverslips at a density of 2.5×10^5 cells per well or 10^6 cells per coverslip. Neurons were cultured with MEM supplemented with 10% horse serum (for E16 cultures) or Neurobasal medium supplemented with B27 (for P1 cultures) and used for electrophysiology and toxicity studies after 12 days. Glial growth was suppressed by addition of 5-fluoro-2-deoxyuridine and uridine, yielding cultured cells with ˜90% neurons as determined by NeuN and GFAP staining (data not shown).
[…]. Oxygen-glucose deprivation was terminated after 1 hr by replacing the glucose-free ECF with Neurobasal medium and incubating the cultures in a normal cell culture incubator.
Aarts et al. (2003) have recently studied ischemia molded by prolonged oxygen-glucose deprivation (2 hr) but without acidosis. […]

[2] = test system: cortical neurons cultured from ASIC+/+ and ASIC1-/- mice; assay: LDH release in neurons cultured from ASIC+/+ and ASIC1-/- mice; assay type: cell-based, mouse; details: ASIC1-/- neurons, 1 hr 1 mM NMDA+10 μM glycine, Mg2+-free pH 7.4 ECF, n=4
Method: as §1
Cells were treated with either pH 7.4 or 6.0 ECF for 1 hr. LDH release was measured 24 hr after acid incubation. […] Background absorbance at 620 was subtracted.

[3] = test system: transient focal ischemia (middle cerebral artery occlusion); details: mouse, in vivo; for percentage of the infarct: iv
Method: Ischemia was induced by introducing a coated filament (6.0; Doccol) from the external carotid artery into the internal carotid artery and advancing it into the arterial Will's Circle, thereby occluding the middle cerebral artery (32). Rectal and temporalis muscle temperature was maintained at 37° C.±0.5° C. with a thermostatically controlled heating pad and lamp. Cerebral blood flow was monitored by transcranial laser doppler. All surgical procedures were performed under an operating stereomicroscope.

[4] = mouse, in vivo
Method: We have, therefore, measured brain pH continuously with a fiber optic pH sensor in the ipsilateral and contralateral parietal cortex of mice immediately after the removal of the middle cerebral artery suture, to determine the degree, distribution, and the time course of acidosis following focal ischemia. Cerebral pH was evaluated in sham-operated animals, in vehicle-treated animals, in PcTX venom-treated animals, and in sodium bicarbonate treated animals. Values are mean±SE (n=3 for each group).
(§2) Cerebral blood flow was monitored by transcranial laser doppler. All surgical procedures were performed under an operating stereomicroscope.
For continuous measurement of pH in the brain, a fiber optic pH micro system (pHOptica, WPI) was used. This system has a pH range between 5 and 9, and the resolution is ±0.003 units. A glass-fiber with its pH-sensitive tip ([…]) was stereotaxically implanted into the brain immediately after the middle cerebral artery occlusion at the following coordinates from the bregma: 2.4 mm laterally, 0.1 posteriorly and 2.2 mm deep. pH was continuously measured for 6 h. The instrument was calibrated with standard solutions (pH 4.0, 5.0, 6.0, 7.0, 8.0, and 9.0) before and after the experiments. […] Changes in pH values were evaluated after PcTX and NaHCO3 intracerebroventricularly or intravenous administration 2 hours after occlusion.

[5] = test system: 60 min middle cerebral artery occlusion; assay: Mouse 60 min middle cerebral artery occlusion, memantine with or without PcTX venom, infarct volume; assay type: in vivo; details: n=5
[6] = test system: transient focal ischemia (middle cerebral artery occlusion); assay type: in vivo, mouse; details: for percentage of the infarct volume: vehicle 50.6±2.3
Method: To investigate the potential interaction between NMDA and ASIC1a blockade on infarct volume, memantine was administered before or after PcTX administration in rodents subjected to 60 min of middle cerebral artery occlusion and evaluated one day after ischemia induction.
as §2
Rodents were treated with saline, PcTX and/or memantine according to the following schedule: Saline IP administered 30 min after middle cerebral artery occlusion; PcTX 15: (0.5 μL, 500 ng/mL) administered 15 min after middle cerebral artery occlusion; Memantine 30 (1 mL, 10 mg/kg) administered 30 min after middle cerebral artery occlusion; PcTx15 min/Memantine 30, 60 120; PcTX (0.5 μL, 500 ng/mL) administration 15 min after middle cerebral artery occlusion followed by IP Memantine (1 mL, 10 mg/kg) administration 30 min, 60 min, or 120 min after PcTX. Memantinel 5/PcTx 180, 300, 360: Memantine (1 mL, 10 mg/kg) administration IP 15 min after middle cerebral artery occlusion followed by intracerebraventricular PcTX (0.5 μL, 500 ng/mL) 180 min, 300 min, or 360 min after Memantine. N=5 animals per group.
FIG. 18 is a graph presenting exemplary data from experiments measuring the percentage of brain infarct volume as a function of the time (in minutes) of administration of memantine after mid-cerebral artery occlusion, in accordance with aspects of the present teachings. Memantine's time window (1 mL, 10 mg/kg). Memantine (0.1 mL, 10 mg/kg) or saline solution (1 mL) was IP-administered 15 minutes, 1 h, or 3 h after ischemia induction. […] Each column represents the mean±SE of the percentage of the infarct compared to the ipsilateral hemisphere.

cortical neurons [7] = assay type: cell-based, mouse; details: preincubation 1 μM, n=6

## COC(=O)[C@@H](N)CCCNC(=N)N[N+](=O)[O-] [L-NAME]
Cortical neurons [1]; 300 μM
  combined 1 hr oxygen-glucose deprivation/acidosis-induced neuronal injury: neither trolox (500 μM) nor L-NAME (300 μM) had significant effect

## CN[C@H](CC(=O)O)C(=O)O [NMDA]
[2]
  LDH release at 24 hr, % of maximal: 84.8%±1.4%

## O=C([O-])O.[Na+] [bicarbonate, sodium bicarbonate]
[3]
  relative infarct volume: 34.5±1.27%
[3]; 2.5 mg/kg
  percentage of the infarct: 61.51±5.03%
[3]; 5 mg/kg
  percentage of the infarct: 55.4±7.89%
[4]
  brain pH value after administration: 7.25±0.25
[4]; iv
  modifying brain pH: less effective

## CC12CC3CC(C)(C1)CC(N)(C3)C2 [memantine]
[5]; ASIC1-/- mice, memantine ip
  infarct volume: 27.7±1.6 mm^3
[5]; ASIC+/+ mice, 10 mg/kg ip, saline 101.4±9.4
  infarct volume: 61.6±12.7 mm^3
[5]; memantine 10 mg/kg ip + aCSF icv, control 123.6±5.3
  infarct volume: 73.8±6.9 mm^3
[6]; 1 mg/kg 1 h after MCAO, n=5
  percentage of the infarct volume: 55.4±5.2
[6]; 10 mg/kg 1 h after MCAO, n=5
  percentage of the infarct volume: 41.0±3.4
[6]; 30 mg/kg 1 h after MCAO, n=5
  percentage of the infarct volume: 43.4±3.8
[6]; 100 mg/kg, n=5, all the mice
  survival of treated ischemic mice: died
[6]; memantine alone ip 1 h after MCAO (time window, FIG. 18), saline 50.6±2.3, n=5
  infarct volume: 40.3±4.3%

## C/C=C(/C)C(=O)O[C@H]1C(C)=C2[C@H]([C@@H]1OC(=O)CCCCCCC)[C@@](C)(OC(C)=O)C[C@H](OC(=O)CCC)[C@@]1(O)[C@H]2OC(=O)[C@@]1(C)O [thapsigargin]
Cortical neurons [7]
  sustained component of acid-induced Ca2+ increase: partially inhibited

## Cc1c(C)c2c(c(C)c1O)CCC(C)(C(=O)O)O2 (centres unmarked) [trolox]
Cortical neurons [1]; 500 μM
  combined 1 hr oxygen-glucose deprivation/acidosis-induced neuronal injury: neither trolox (500 μM) nor L-NAME (300 μM) had significant effect
